For one assay, the target named is T1, FLT3 R834Q (Homo sapiens, UniProt P36888, R834Q).
T1 construct: purchased DiscoverX (KINOMEscan); host or cells: E. coli (T7 phage) or HEK-293
T1 sequence (P36888 27-993 R834Q): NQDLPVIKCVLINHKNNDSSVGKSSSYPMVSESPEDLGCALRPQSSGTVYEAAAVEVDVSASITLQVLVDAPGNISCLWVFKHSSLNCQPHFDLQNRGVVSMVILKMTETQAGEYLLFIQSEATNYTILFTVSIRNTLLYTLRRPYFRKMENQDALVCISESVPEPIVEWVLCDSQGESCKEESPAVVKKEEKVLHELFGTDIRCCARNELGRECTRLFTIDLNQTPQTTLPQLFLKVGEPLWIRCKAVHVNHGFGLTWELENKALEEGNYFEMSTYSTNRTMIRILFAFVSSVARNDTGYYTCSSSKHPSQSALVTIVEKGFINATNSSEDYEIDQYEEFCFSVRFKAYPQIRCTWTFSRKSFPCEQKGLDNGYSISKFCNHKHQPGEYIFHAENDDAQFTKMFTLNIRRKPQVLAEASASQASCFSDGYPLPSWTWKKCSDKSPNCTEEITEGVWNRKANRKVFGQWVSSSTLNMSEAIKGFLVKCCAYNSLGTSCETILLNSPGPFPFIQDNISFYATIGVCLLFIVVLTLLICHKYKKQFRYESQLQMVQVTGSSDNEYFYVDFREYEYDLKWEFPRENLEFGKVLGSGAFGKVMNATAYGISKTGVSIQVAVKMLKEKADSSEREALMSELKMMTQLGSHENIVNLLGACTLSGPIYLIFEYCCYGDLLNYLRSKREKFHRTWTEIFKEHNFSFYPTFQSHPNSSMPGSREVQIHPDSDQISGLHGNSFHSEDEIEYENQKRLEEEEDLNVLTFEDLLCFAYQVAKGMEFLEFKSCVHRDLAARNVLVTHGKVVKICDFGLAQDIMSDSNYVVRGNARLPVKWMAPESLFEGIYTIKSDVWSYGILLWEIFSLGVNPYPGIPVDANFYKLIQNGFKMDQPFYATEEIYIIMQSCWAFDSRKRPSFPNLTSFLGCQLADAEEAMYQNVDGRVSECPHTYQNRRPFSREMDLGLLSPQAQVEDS
Description: DiscoverX KINOMEscan competition binding, FLT3 R834Q. To be noted: no ATP. The source says: (§1) Kinase binding data were obtained for various exemplary compounds prepared according to Examples 2-15 using the DiscoverX KINOMEscan® active site-directed competition binding site-directed assay protocol described below. […] As a result, the data report thermodynamic interaction affinities (Kd values), rather than IC50 values that are dependent on ATP concentrations. The assay uses a DNA-tagged version of the protein kinase, and an immobilized ligand bound to a solid support. Compounds that directly or indirectly prevent kinase binding to the immobilized ligand reduce the amount of kinase captured on the solid support, which is detected using an ultra-sensitive qPCR method. Affinity constants reported from the assay have been reported to be independent of the immobilized ligand used that is coupled to the solid support (See supplemental information in Fabian, M. A. et. al., (2005) Nat. […] Wodicka, L. […] Biol. 17, 1241-1249.) Kinase-tagged T7 phage strains were prepared in an E. coli host derived from the BL21 strain. E. coli were grown to log-phase and infected with T7 phage and incubated with shaking at 32° C. until lysis. […] Kds were determined using an 11-point 3-fold compound dilution series with three DMSO control points. […] The kinase concentration in the eluates was measured by qPCR. Binding constants (Kds) were calculated with a standard dose-response curve using the Hill equation. […]

In a further assay the target is T2, FLT3 ITD, D835V (Homo sapiens, UniProt P36888, D835V, form not given).
T2 construct: fused on or other part: DNA tag for qPCR read-out (T7 phage fusion, or DNA-tagged kinase made in HEK-293 cells)
T2 sequence (P36888 1-993 D835V): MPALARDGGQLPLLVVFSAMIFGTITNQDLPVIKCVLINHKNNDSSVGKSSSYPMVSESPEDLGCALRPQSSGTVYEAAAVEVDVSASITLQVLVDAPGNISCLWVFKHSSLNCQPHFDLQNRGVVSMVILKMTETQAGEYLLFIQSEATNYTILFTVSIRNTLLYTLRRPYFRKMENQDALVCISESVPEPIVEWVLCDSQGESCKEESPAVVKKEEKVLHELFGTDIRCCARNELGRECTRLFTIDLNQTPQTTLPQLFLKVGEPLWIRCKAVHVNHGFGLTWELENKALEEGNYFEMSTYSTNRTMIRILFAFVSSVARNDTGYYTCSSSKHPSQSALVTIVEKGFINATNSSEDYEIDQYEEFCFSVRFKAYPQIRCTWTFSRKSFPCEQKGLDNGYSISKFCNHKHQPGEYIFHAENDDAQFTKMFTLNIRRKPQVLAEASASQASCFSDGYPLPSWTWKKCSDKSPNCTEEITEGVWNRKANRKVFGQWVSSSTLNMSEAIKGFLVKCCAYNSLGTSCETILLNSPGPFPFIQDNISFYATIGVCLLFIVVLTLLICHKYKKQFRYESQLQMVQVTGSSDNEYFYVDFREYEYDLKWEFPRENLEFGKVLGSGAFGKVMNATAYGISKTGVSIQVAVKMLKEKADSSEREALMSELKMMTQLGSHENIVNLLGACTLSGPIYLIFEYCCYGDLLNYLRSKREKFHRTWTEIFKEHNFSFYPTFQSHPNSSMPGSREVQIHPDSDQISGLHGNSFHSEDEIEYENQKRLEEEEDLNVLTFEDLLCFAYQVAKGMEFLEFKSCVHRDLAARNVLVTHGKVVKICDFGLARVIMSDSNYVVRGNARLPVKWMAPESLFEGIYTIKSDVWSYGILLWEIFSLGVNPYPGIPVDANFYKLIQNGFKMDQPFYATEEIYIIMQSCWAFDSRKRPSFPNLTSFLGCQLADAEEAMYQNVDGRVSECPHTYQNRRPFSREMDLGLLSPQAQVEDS
As to the kind of experiment: DiscoverX KINOMEscan competition binding, FLT3 ITD, D835V. To be noted: no ATP.
From the text: as §1

pKd: −log10 of the molar value.

Take `COc1cc2ncc(-c3nc(N[C@H]4CNCC[C@@H]4F)c(F)cc3F)n2nc1C1CCC1` [Compound 15a, 6-(6-cyclobutyl-7-methoxyimidazo[1,2-b]pyridazin-3-yl)-3,5-difluoro-N-((3S,4S)-4-fluoropiperidin-3-yl)pyridin-2-amine]: the pKd (in general, the negative decadic logarithm of the Kd, by convention in mol/L) is 9.09 at FLT3 R834Q and greater than 9.77 on FLT3 ITD, D835V.

The values are drawn from patent publication US20250368648A1, “MULTI-CYCLIC IRAK AND FLT3 INHIBITING COMPOUNDS AND USES THEREOF” (CHILDREN'S HOSPITAL MEDICAL CENTER, priority 2022, published 2025).
